Measured values published in patent US11926623B2, “Heterocycle derivatives as pesticides” (Bayer Aktiengesellschaft, priority 2018, dated 2024).
Like-named read-outs stand apart in the source and are kept apart here.

Tests used:
Ctenocephalides felis = Ctenocephalides felis oral test; assay type: in vivo; conditions: 48 h, 100 ppm in citrated cattle blood, unfed adult cat fleas, after 2 days, read-out: efficacy (kill in %)
Procedure: Ctenocephalides felis—Oral Test [table] To produce a suitable active compound preparation, 10 mg of active compound are mixed with 0.5 ml of dimethyl sulfoxide. Dilution with citrated cattle blood gives the desired concentration. About 20 unfed adult cat fleas (Ctenocephalides felis) are placed into a chamber which is closed at the top and bottom with gauze. A metal cylinder whose bottom end is closed with parafilm is placed onto the chamber. The cylinder contains the blood/active compound formulation, which can be imbibed by the fleas through the parafilm membrane. After 2 days, the kill in % is determined. 100% means that all of the fleas have been killed; 0% means that none of the fleas have been killed.

Myzus persicae [1] = experiment: Myzus persicae oral test; assay type: in vivo; conditions: 120 h, mixed population of green peach aphids, after 5 days, read-out: efficacy
Procedure: Myzus persicae—Oral Test [table] To produce a suitable preparation of active compound, 1 part by weight of active compound is dissolved using the specified parts by weight of solvent and made up with water until the desired concentration is attained. 50 μl of the active ingredient formulation are transferred into microtitre plates and made up to a final volume of 200 μl with 150 μl of IPL41 insect medium (33%+15% sugar). Subsequently, the plates are sealed with parafilm, which a mixed population of green peach aphids (Myzus persicae) within a second microtitre plate is able to puncture and imbibe the solution through. After 5 days, the efficacy in % is determined. 100% means that all the aphids have been killed; 0% means that no aphids have been killed.

Myzus persicae [2] = experiment: Myzus persicae spray test; assay type: in vivo; conditions: foliar, 120 h, sprayed Chinese cabbage leaf discs, all stages of the green peach aphid, after 5 days, read-out: efficacy
Procedure: Myzus persicae—Spray Test [table] To produce a suitable active compound preparation, 1 part by weight of active compound is dissolved using the stated parts by weight of solvent and made up with water containing an emulsifier concentration of 1000 ppm until the desired concentration is attained. To produce further test concentrations, the formulation is diluted with emulsifier-containing water. Discs of Chinese cabbage leaves (Brassica pekinensis) infested by all stages of the green peach aphid (Myzus persicae) are sprayed with an active compound formulation of the desired concentration. After 5 days, the efficacy in % is determined. 100% means that all the aphids have been killed; 0% means that no aphids have been killed.

[3] = log P by HPLC on reversed-phase column (C18), EEC Directive 79/831 Annex V.A8; assay type: physicochemical
Procedure: The log P values were determined according to EEC Directive 79/831 Annex V.A8 by HPLC (high-performance liquid chromatography) on a reversed-phase column (C18) using the following methods: ^[a] […] Calibration was carried out using a homologous series of straight-chain alkan-2-ones (having 3 to 16 carbon atoms) with known log P values. The values between successive alkanones are determined by linear regression.

Spodoptera frugiperda = Spodoptera frugiperda spray test; assay type: in vivo; conditions: foliar, 168 h, sprayed maize leaf discs, fall armyworm caterpillars, after 7 days, read-out: efficacy
Procedure: Spodoptera frugiperda—Spray Test [table] To produce a suitable active compound preparation, 1 part by weight of active compound is dissolved using the stated parts by weight of solvent and made up with water containing an emulsifier concentration of 1000 ppm until the desired concentration is attained. To produce further test concentrations, the formulation is diluted with emulsifier-containing water. Leaf discs of maize (Zea mays) are sprayed with an active compound formulation of the desired concentration and, after drying, populated with caterpillars of the fall armyworm (Spodoptera frugiperda). After 7 days, the efficacy in % is determined. 100% means that all the caterpillars have been killed; 0% means that no caterpillar has been killed.

Phaedon cochleariae = Phaedon cochleariae spray test; assay type: in vivo; conditions: 100 g/ha, sprayed Chinese cabbage leaf discs, mustard beetle larvae, after 7 days
Procedure: Phaedon cochleariae—Spray Test
To produce a suitable active compound preparation, 1 part by weight of active compound is dissolved using the stated parts by weight of solvent and made up with water containing an emulsifier concentration of 1000 ppm until the desired concentration is attained. To produce further test concentrations, the formulation is diluted with emulsifier-containing water.
Discs of Chinese cabbage leaves (Brassica pekinensis) are sprayed with an active compound formulation of the desired concentration and, after drying, populated with larvae of the mustard beetle (Phaedon cochleariae).
After 7 days, the efficacy in % is determined. 100% means that all the beetle larvae have been killed; 0% means that no beetle larvae have been killed.

Diabrotica balteata = Diabrotica balteata spray test; assay type: in vivo; conditions: 168 h, 160 μg/well, sprayed germinated wheat grains, beetle larvae, after 7 days, read-out: efficacy
Procedure: Diabrotica balteata—Spray Test [table] To produce a suitable active compound preparation, 1 part by weight of active compound is dissolved using the stated parts by weight of solvent and made up with water containing an emulsifier concentration of 1000 ppm until the desired concentration is attained. To produce further test concentrations, the formulation is diluted with emulsifier-containing water. Pre-swollen wheat grains (Triticum aestivum) are incubated in a multiwell plate filled with agar and a little water for one day (5 seed grains per well). The germinated wheat grains are sprayed with an active compound preparation of the desired concentration. Subsequently, each cavity is infected with 10-20 beetle larvae of Diabrotica balteata. After 7 days, the efficacy in % is determined. 100% means that all wheat plants have grown as in the untreated, uninfected control; 0% means that no wheat plant has grown.

Structure (SMILES)	pest or weed control at 100 ppm (Ctenocephalides felis) [%]	pest or weed control at 4 ppm (Myzus persicae [1]) [%]	pest or weed control at 100 g/ha (Myzus persicae [2]) [%]	chromatographic logP ([3]; LC-UV in the acidic range, formic acid in water / acetonitrile, read-out: log P[acidic])	chromatographic logP ([3]; LC-UV in the neutral range, ammonium carbonate in water / acetonitrile, read-out: log P[neutral])	pest or weed control at 100 g/ha (Spodoptera frugiperda) [%]	efficacy (Phaedon cochleariae) [%]	pest or weed control at 160 µg/disc, 160 µg/well (Diabrotica balteata) [%]
CCS(=O)(=O)c1c(-c2nc3cc(C(F)(F)F)cnc3n2C)nc(C2CC(C3CC3)=NO2)n1C (centres unmarked) [Example I-1, 2-[2-(3-Cyclopropyl-4,5-dihydro-1,2-oxazol-5-yl)-5-(ethylsulfonyl)-1-methyl-1H-imidazol-4-yl]-3-methyl-6-(trifluoromethyl)-3H-imidazo[4,5-b]pyridine]	100	100	100	2.73	2.72	–	–	–
CCS(=O)(=O)c1c(-c2nc3cc(C(F)(F)F)cnc3n2C)nc(C2CC(c3ccc(Cl)cc3)=NO2)n1C (centres unmarked) [Example I-2]	–	100	–	–	–	100	–	–
CCS(=O)(=O)c1c(-c2nc3cc(C(F)(F)F)cnc3n2C)nc(C2CC(c3ccccn3)=NO2)n1C (centres unmarked) [Example I-3]	–	100	90	–	–	100	–	–
CCS(=O)(=O)c1c(-c2nc3cc(C(F)(F)F)cnc3n2C)nc(C2CC(c3cccnc3)=NO2)n1C (centres unmarked) [Example I-4]	–	100	100	–	–	–	–	–
CCS(=O)(=O)c1c(-c2nc3cc(C(F)(F)F)cnc3n2C)nc(-c2ccnn2C2CC2)n1C [Example I-7]	–	100	90	–	–	–	100	–
CCS(=O)(=O)c1c(-c2nc3cc(C(F)(F)F)cnc3n2C)nc(-c2ccc(C3CC3)s2)n1C [Example I-8]	80	100	100	–	–	100	–	–
CCS(=O)(=O)c1c(-c2nc3cc(C(F)(F)F)cnc3n2C)nc(-c2ccc(-c3ccccc3)s2)n1C [Example I-11]	90	100	90	–	–	100	–	–
CCS(=O)(=O)c1c(-c2nc3cc(C(F)(F)F)cnc3n2C)nc(-c2cccc(C3(C#N)CC3)c2)n1C [Example I-12]	–	100	90	–	–	100	–	100
CCS(=O)(=O)c1c(-c2nc3cc(C(F)(F)F)cnc3n2C)nc(-c2ccc(-c3cccs3)s2)n1C [Example I-13]	–	100	90	–	–	–	–	80
CCS(=O)(=O)c1c(-c2nc3cc(C(F)(F)C(F)(F)F)cnc3n2C)nc(-c2ccc(C3(C#N)CC3)cc2)n1C [Example I-15]	–	100	90	–	–	100	–	100
CCS(=O)(=O)c1c(-c2nc3cc(C(F)(F)C(F)(F)F)cnc3n2C)nc(-c2cnn(C3CC3)c2)n1C [Example I-16]	–	100	90	–	–	100	–	100
CCS(=O)(=O)c1c(-c2nc3cc(C(F)(F)C(F)(F)F)cnc3n2C)nc(-c2cnn(-c3ccc(F)cc3)c2)n1C [Example I-17]	–	100	–	–	–	100	–	100
CCS(=O)(=O)c1c(-c2nc3cc(C(F)(F)C(F)(F)F)cnc3n2C)nc(-c2cnn(-c3ccccc3C#N)c2)n1C [Example I-18]	–	100	70	–	–	100	–	80
CCS(=O)(=O)c1c(-c2nc3cc(C(F)(F)C(F)(F)F)cnc3n2C)nc(-c2cnn(-c3cccc(C#N)c3)c2)n1C [Example I-19]	–	100	–	–	–	100	–	100
CCS(=O)(=O)c1c(-c2nc3cc(C(F)(F)C(F)(F)F)cnc3n2C)nc(-c2cnn(-c3cncc(F)c3)c2)n1C [Example I-20]	–	100	100	–	–	100	–	100
CCS(=O)(=O)c1c(-c2nc3cc(C(F)(F)C(F)(F)F)cnc3n2C)nc(-n2ccc(C3CC3)n2)n1C [Example I-21]	–	100	90	–	–	100	–	100
CCS(=O)(=O)c1c(-c2nc3cc(C(F)(F)C(F)(F)F)cnc3n2C)nc(-c2ccc(C3CC3)nc2)n1C [Example I-22]	–	100	90	–	–	100	–	100
CCS(=O)(=O)c1c(-c2nc3cc(C(F)(F)C(F)(F)F)cnc3n2C)nc(-c2cccc(N3CCOCC3)n2)n1C [Example I-23]	–	100	–	–	–	100	–	100
CCS(=O)(=O)c1c(-c2nc3cc(C(F)(F)C(F)(F)F)cnc3n2C)nc(-c2cccc(C3(C#N)CC3)c2)n1C [Example I-24]	–	100	–	–	–	100	–	100
CCS(=O)(=O)c1c(-c2nc3cc(C(F)(F)C(F)(F)F)cnc3n2C)nc(-n2cc(C#N)c(-c3ccccc3F)c2)n1C [Example I-25]	–	–	–	–	–	100	–	100
CCS(=O)(=O)c1c(-c2nc3cc(C(F)(F)C(F)(F)F)cnc3n2C)nc(-n2cc(C#N)c(-c3ccc(F)cc3)c2)n1C [Example I-26]	–	100	–	–	–	100	–	100
